Like-named read-outs stand apart in the source and are kept apart here. Starred links: 1 amine or outer side, 2 acyl side, 3 side chain; linkers in the order of their positions; H or OH if unused. Non-standard residues stand in square brackets, D forms with d. Residues, ends and D or L forms follow the SMILES beside them. Groups on a side chain read outwards from the residue. *: point of attachment. C20 diacid = O=C(O)CCCCCCCCCCCCCCCCCCC(=O)*; C18 diacid = O=C(O)CCCCCCCCCCCCCCCCC(=O)*; γGlu = O=C(O)[C@H](CCC(=O)[*:2])N[*:1]; Palmitoyl = CCCCCCCCCCCCCCCC(=O)*; αMeF = C[C@](N)(Cc1ccccc1)C(=O)O; PEG2 = NCCOCCOCCC(=O)O; AEEA = NCCOCCOCC(=O)O; Aib = CC(C)(N)C(=O)O A value given as a limit tells only on which side of the number the result lay.

Test [1] has as its target human GLP-1 receptor (hGLP-1R) (Homo sapiens, UniProt P43220). The experiment in a line: cAMP production (HTRF) in CHO cells expressing hGLP-1R. It is filed as cell-based. Further details: expressed in transfected cells. As to conditions: for % Relative Potency Ratio: % GLP-1R activity relative to GLP-1 / % GlucR activity relative to glucagon. The gist of the method:
(§1)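 Read-out: HTRF cAMP (anti-cAMP cryptate donor, cAMP-d2 acceptor in conjugate/lysis buffer), converted to % Delta F and fitted by 4-parameter logistic for EC50. Cell densities were 1×10^5 cells/mL (hGLP-1R) or 2×10^5 cells/mL (hGCGR). Stimulation lasted 30 min at room temperature.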
On the technique in general: cAMP levels reflect the balance of adenylyl cyclase and phosphodiesterase activity.

Test [2] concerns the target human glucagon receptor (hGCGR) (Homo sapiens, UniProt P47871). Description: cAMP production (HTRF) in CHO cells expressing hGCGR. It is filed as cell-based. Set-up: expressed in transfected cells. As to conditions: geometric mean. The gist of the method: as §1
Setting [3] is: Table 7, peptides modified at position 20, cAMP in CHO hGLP-1R cells, geometric mean, read-out: hGLP-1R EC50.
Where [4] appears, read: Table 7, peptides modified at position 20, cAMP in CHO hGCGR cells, read-out: hGluc-R EC50.
The mark [5] stands for this setting: Table 6, peptides modified at position 17, cAMP in CHO hGLP-1R cells, geometric mean, read-out: hGLP-1R EC50.
Where [6] appears, read: Table 6, peptides modified at position 17, cAMP in CHO hGCGR cells, read-out: hGluc-R EC50.

human glucagon receptor (hGCGR), sequence (P47871 26-477): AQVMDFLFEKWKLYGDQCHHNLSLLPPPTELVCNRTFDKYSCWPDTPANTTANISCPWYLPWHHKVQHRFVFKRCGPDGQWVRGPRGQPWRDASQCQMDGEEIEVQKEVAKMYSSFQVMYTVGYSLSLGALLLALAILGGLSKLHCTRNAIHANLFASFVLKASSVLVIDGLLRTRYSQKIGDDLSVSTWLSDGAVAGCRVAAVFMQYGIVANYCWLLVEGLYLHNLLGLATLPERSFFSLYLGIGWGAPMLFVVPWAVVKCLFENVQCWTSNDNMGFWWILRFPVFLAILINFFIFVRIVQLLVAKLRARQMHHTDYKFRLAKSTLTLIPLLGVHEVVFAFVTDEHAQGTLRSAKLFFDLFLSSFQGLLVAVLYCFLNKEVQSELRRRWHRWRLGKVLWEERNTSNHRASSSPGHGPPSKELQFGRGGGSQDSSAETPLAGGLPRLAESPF
human GLP-1 receptor (hGLP-1R), sequence (P43220 24-463): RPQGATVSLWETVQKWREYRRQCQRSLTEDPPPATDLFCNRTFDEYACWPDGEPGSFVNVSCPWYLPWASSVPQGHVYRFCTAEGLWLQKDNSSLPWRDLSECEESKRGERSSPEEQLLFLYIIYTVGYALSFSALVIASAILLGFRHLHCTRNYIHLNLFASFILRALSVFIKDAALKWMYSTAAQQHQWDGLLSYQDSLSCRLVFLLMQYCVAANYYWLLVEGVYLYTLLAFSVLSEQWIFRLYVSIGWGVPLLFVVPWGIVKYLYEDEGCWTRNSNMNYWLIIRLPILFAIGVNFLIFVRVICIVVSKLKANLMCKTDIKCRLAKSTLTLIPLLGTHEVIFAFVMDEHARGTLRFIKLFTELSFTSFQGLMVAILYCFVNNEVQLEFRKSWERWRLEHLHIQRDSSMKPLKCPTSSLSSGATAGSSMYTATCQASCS

The EC50 is the midpoint of the concentration-response curve. Take `CC(C)C[C@H](NC(=O)[C@H](Cc1c[nH]c2ccccc12)NC(=O)[C@H](CCC(N)=O)NC(=O)[C@@H](NC(=O)[C@H](Cc1ccccc1)NC(=O)[C@H](CC(=O)O)NC(=O)[C@H](CCCCNC(=O)CC[C@H](NC(=O)CCCCCCCCCCCCCCCCC(=O)O)C(=O)O)NC(=O)[C@H](C)NC(=O)[C@H](CCCNC(=N)N)NC(=O)[C@H](CCCNC(=N)N)NC(=O)[C@H](CO)NC(=O)[C@H](CC(=O)O)NC(=O)[C@H](CC(C)C)NC(=O)[C@](C)(Cc1ccccc1)NC(=O)[C@H](CCCCN)NC(=O)[C@H](CO)NC(=O)[C@H](Cc1ccc(O)cc1)NC(=O)[C@H](CC(=O)O)NC(=O)[C@H](CO)NC(=O)[C@@H](NC(=O)[C@H](Cc1ccccc1)NC(=O)[C@@H](NC(=O)CNC(=O)[C@H](CCC(N)=O)NC(=O)C(C)(C)NC(=O)[C@@H](N)Cc1c[nH]cn1)[C@@H](C)O)[C@@H](C)O)C(C)C)C(=O)N[C@@H](CC(C)C)C(=O)N[C@@H](CCC(=O)O)C(=O)NC(C)(C)C(=O)NCC(=O)O` [Peptide 335]: the figures for the EC50 in test [1] (setting [3]) and in test [2] (setting [4]) were 1060 pM and 312 pM, respectively. For the same compound, the “% Relative Potency Ratio” value in test [1] (Table 7) came to 0.6.
Regarding `CC(C)C[C@H](NC(=O)[C@H](Cc1c[nH]c2ccccc12)NC(=O)[C@H](CCC(=O)O)NC(=O)[C@@H](NC(=O)[C@H](Cc1ccccc1)NC(=O)[C@H](CC(=O)O)NC(=O)[C@H](CCC(N)=O)NC(=O)[C@H](C)NC(=O)[C@H](CCCNC(=N)N)NC(=O)[C@H](CCCCNC(=O)COCCOCCNC(=O)COCCOCCNC(=O)CC[C@H](NC(=O)CCCCCCCCCCCCCCCCC(=O)O)C(=O)O)NC(=O)[C@H](CO)NC(=O)[C@H](CC(=O)O)NC(=O)[C@H](CC(C)C)NC(=O)[C@](C)(Cc1ccccc1)NC(=O)[C@H](CCCCN)NC(=O)[C@H](CO)NC(=O)[C@@H](NC(=O)[C@H](CC(=O)O)NC(=O)[C@H](CO)NC(=O)[C@@H](NC(=O)[C@H](Cc1ccccc1)NC(=O)[C@@H](NC(=O)CNC(=O)[C@H](CCC(N)=O)NC(=O)C(C)(C)NC(=O)[C@@H](N)Cc1c[nH]cn1)[C@@H](C)O)[C@@H](C)O)C(C)C)C(C)C)C(=O)N[C@@H](CC(C)C)C(=O)NC(C)(C)C(=O)N[C@H](C(=O)O)[C@@H](C)O` [Peptide 38] (H-H[Aib]QGTFTSDVSK[αMeF]LDSK([AEEA-AEEA-γGlu-C18 diacid])RAQDFVEWLL[Aib]T-OH; N-terminus assumed), the EC50 in test [1] (setting [5]) came out at 75.6 pM; in test [2] (setting [6]), 441 pM. Further, in test [1] (Table 6), the “% Relative Potency Ratio” value was found to be 11.6.
For the compound `CC[C@H](C)[C@H](NC(=O)C(C)(C)NC(=O)[C@H](CCC(N)=O)NC(=O)[C@@H](NC(=O)[C@](C)(Cc1ccccc1)NC(=O)[C@H](CC(=O)O)NC(=O)[C@H](CCCCNC(=O)COCCOCCNC(=O)COCCOCCNC(=O)CC[C@H](NC(=O)CC[C@H](NC(=O)CCCCCCCCCCCCCCCCCCC(=O)O)C(=O)O)C(=O)O)NC(=O)[C@H](C)NC(=O)[C@H](C)NC(=O)[C@H](CCCNC(=N)N)NC(=O)[C@H](CO)NC(=O)[C@H](CC(=O)O)NC(=O)[C@H](CC(C)C)NC(=O)[C@](C)(Cc1ccccc1)NC(=O)[C@H](CCCCN)NC(=O)[C@H](CO)NC(=O)[C@@H](NC(=O)[C@H](CC(=O)O)NC(=O)[C@H](CO)NC(=O)[C@@H](NC(=O)[C@](C)(Cc1ccccc1)NC(=O)[C@H](CO)NC(=O)CNC(=O)[C@H](CCC(N)=O)NC(=O)C(C)(C)NC(=O)[C@@H](N)Cc1c[nH]cn1)[C@@H](C)O)C(C)C)C(C)C)C(=O)N[C@@H](C)C(=O)N[C@@H](CC(N)=O)C(=O)N[C@H](C(N)=O)[C@@H](C)O` [Peptide 322] (H-H[Aib]QGS[αMeF]TSDVSK[αMeF]LDSRAAK([AEEA-AEEA-γGlu-γGlu-C20 diacid])D[αMeF]VQ[Aib]IANT-NH2), the EC50 in test [1] (setting [3]) is 68.3 pM; in test [2] (setting [4]), greater than 24700 pM.
Consider `CC[C@H](C)[C@H](NC(=O)[C@H](Cc1c[nH]c2ccccc12)NC(=O)[C@H](CCCCNC(=O)CC[C@H](NC(=O)CCCCCCCCCCCCCCCCC(=O)O)C(=O)O)NC(=O)[C@@H](NC(=O)[C@H](Cc1ccccc1)NC(=O)[C@H](CC(=O)O)NC(=O)[C@H](CCC(N)=O)NC(=O)[C@H](C)NC(=O)[C@H](C)NC(=O)[C@H](CCC(N)=O)NC(=O)[C@H](CO)NC(=O)[C@H](CC(=O)O)NC(=O)[C@H](CC(C)C)NC(=O)[C@](C)(Cc1ccccc1)NC(=O)[C@H](CCCCN)NC(=O)[C@H](CO)NC(=O)[C@@H](NC(=O)[C@H](CC(=O)O)NC(=O)[C@H](CO)NC(=O)[C@@H](NC(=O)[C@](C)(Cc1ccccc1)NC(=O)[C@H](CO)NC(=O)CNC(=O)[C@H](Cc1c[nH]cn1)NC(=O)C(C)(C)NC(=O)[C@@H](N)Cc1c[nH]cn1)[C@@H](C)O)C(C)C)C(C)C)C(=O)N[C@@H](C)C(=O)N[C@@H](CC(N)=O)C(=O)N[C@H](C(N)=O)[C@@H](C)O` [Peptide 351] (H-H[Aib]HGS[αMeF]TSDVSK[αMeF]LDSQAAQDFVK([γGlu-C18 diacid])WIANT-NH2), for which the “% Relative Potency Ratio” value in test [1] is recorded as 0.7. Also, the EC50 in test [1] (hGLP-1R EC50 (pM)) stood at 605 pM; in test [2] (hGluc-R EC50 (pM), cAMP, CHO cells, 0.1% BSA), 216 pM.
Turning to `CCCCCCCCCCCCCCCC(=O)N[C@@H](CCC(=O)N[C@@H](CCC(=O)NCCOCCOCCC(=O)NCCOCCOCCC(=O)NCCCC[C@H](NC(=O)[C@H](CO)NC(=O)[C@H](CC(=O)O)NC(=O)[C@H](CC(C)C)NC(=O)[C@@H](NC(=O)[C@H](CCCCN)NC(=O)[C@H](CO)NC(=O)[C@@H](NC(=O)[C@H](CC(=O)O)NC(=O)[C@H](CO)NC(=O)[C@@H](NC(=O)[C@](C)(Cc1ccccc1)NC(=O)[C@H](CO)NC(=O)CNC(=O)[C@H](CCC(N)=O)NC(=O)[C@H](CO)NC(=O)[C@@H](N)Cc1c[nH]cn1)[C@@H](C)O)C(C)C)[C@@H](C)CC)C(=O)N[C@@H](C)C(=O)N[C@@H](C)C(=O)N[C@@H](CCC(N)=O)C(=O)N[C@@H](CC(=O)O)C(=O)N[C@@](C)(Cc1ccccc1)C(=O)N[C@H](C(=O)N[C@@H](CCC(=O)O)C(=O)N[C@@H](Cc1c[nH]c2ccccc12)C(=O)N[C@H](C(=O)N[C@H](C(=O)N[C@@H](CC(N)=O)C(=O)N[C@H](C(N)=O)[C@@H](C)O)[C@@H](C)CC)[C@@H](C)CC)C(C)C)C(=O)O)C(=O)O` [Peptide 116] (H-HSQGS[αMeF]TSDVSKILDSK([PEG2-PEG2-γGlu-γGlu-Palmitoyl])AAQD[αMeF]VEWIINT-NH2; N-terminus assumed), the EC50 in test [1] (setting [5]) was found to be 24.3 pM; in test [2] (setting [6]) it was 10.3 pM. The “% Relative Potency Ratio” value in test [1] (Table 6) was determined as 0.8.
`CC[C@H](C)[C@H](NC(=O)C(C)(C)NC(=O)[C@H](CCC(N)=O)NC(=O)[C@@H](NC(=O)[C@H](Cc1ccccc1)NC(=O)[C@H](CC(=O)O)NC(=O)[C@H](CCCCNC(=O)COCCOCCNC(=O)COCCOCCNC(=O)CC[C@H](NC(=O)CC[C@H](NC(=O)CCCCCCCCCCCCCCCCCCC(=O)O)C(=O)O)C(=O)O)NC(=O)[C@H](C)NC(=O)[C@H](C)NC(=O)[C@H](CCCNC(=N)N)NC(=O)[C@H](CO)NC(=O)[C@H](CC(=O)O)NC(=O)[C@H](CC(C)C)NC(=O)[C@](C)(Cc1ccccc1)NC(=O)[C@H](CCCCN)NC(=O)[C@H](CO)NC(=O)[C@@H](NC(=O)[C@H](CC(=O)O)NC(=O)[C@H](CO)NC(=O)[C@@H](NC(=O)[C@](C)(Cc1ccccc1)NC(=O)[C@H](CO)NC(=O)CNC(=O)[C@H](Cc1c[nH]cn1)NC(=O)C(C)(C)NC(=O)[C@@H](N)Cc1c[nH]cn1)[C@@H](C)O)C(C)C)C(C)C)C(=O)N[C@@H](C)C(=O)N[C@@H](CC(N)=O)C(=O)N[C@H](C(=O)NCC(N)=O)[C@@H](C)O` [Peptide 234] (H-H[Aib]HGS[αMeF]TSDVSK[αMeF]LDSRAAK([AEEA-AEEA-γGlu-γGlu-C20 diacid])DFVQ[Aib]IANTG-NH2): the concentration giving a half-maximal response (EC50) in test [1] (setting [3]) is 68 pM; in test [2] (setting [4]), 1290 pM. In addition, in test [1] (Table 7), the “% Relative Potency Ratio” value is 37.4.
As to `CC[C@H](C)[C@H](NC(=O)[C@H](Cc1c[nH]c2ccccc12)NC(=O)[C@H](CCC(N)=O)NC(=O)[C@@H](NC(=O)[C@H](Cc1ccccc1)NC(=O)[C@H](CC(=O)O)NC(=O)[C@H](CCCCNC(=O)COCCOCCNC(=O)COCCOCCNC(=O)CC[C@H](NC(=O)CC[C@H](NC(=O)CCCCCCCCCCCCCCCCCCC(=O)O)C(=O)O)C(=O)O)NC(=O)[C@H](C)NC(=O)[C@H](C)NC(=O)[C@H](CCCNC(=N)N)NC(=O)[C@H](CO)NC(=O)[C@H](CC(=O)O)NC(=O)[C@H](CC(C)C)NC(=O)[C@](C)(Cc1ccccc1)NC(=O)[C@H](CCCCN)NC(=O)[C@H](CO)NC(=O)[C@@H](NC(=O)[C@H](CC(=O)O)NC(=O)[C@H](CO)NC(=O)[C@@H](NC(=O)[C@](C)(Cc1ccccc1)NC(=O)[C@H](CO)NC(=O)CNC(=O)[C@H](Cc1c[nH]cn1)NC(=O)C(C)(C)NC(=O)[C@@H](N)Cc1c[nH]cn1)[C@@H](C)O)C(C)C)C(C)C)C(=O)N[C@@H](C)C(=O)N[C@@H](CC(N)=O)C(=O)N[C@H](C(=O)NCC(=O)NCC(N)=O)[C@@H](C)O` [Peptide 219] (H-H[Aib]HGS[αMeF]TSDVSK[αMeF]LDSRAAK([AEEA-AEEA-γGlu-γGlu-C20 diacid])DFVQWIANTGG-NH2; N-terminus assumed), the EC50 was found to be 94.5 pM in test [1] (setting [3]) and 298 pM in test [2] (setting [4]). Also, in test [1] (Table 7), the “% Relative Potency Ratio” value turned out to be 6.2.

(Values after patent US20250353891A1 (MEDIMMUNE LIMITED, priority 2022, published 2025).)
